Key:
[1] = tested on: model of memory impairment induced by scopolamine; assay: Y-maze test in scopolamine-treated mice; assay type: in vivo, ICR mice; conditions: scopolamine 1 mg/Kg i.p.; for Alternation Behavior (%): Table 6, 8 minutes in Y-maze; for Total Entry: Table 7, total number of entry to each branch, 8 minutes
Procedure: An experiment was conducted to confirm effects of swertisin or isoorientin, and extracts of Swertia pseudochinensis or Swertia japonica containing the same prepared in Examples 1 to 3 in treating dementia by using a model of memory impairment induced by scopolamine. Detailed method follows.
(§1) Six-week old ICR mice in about 26 g to 28 g (Orientbio Inc, Republic of Korea) were received water and feed without constraint and adapted for 5 days under an environment having about 23±1° C. of temperature, about 60±10% of humidity and 12-hour light/dark cycle (animal laboratory at College of Pharmacy, Kyung-Hee University), and then used for the experiment.
A Y-maze was prepared for the experiment. The Y-maze has 3 branches and each branch has 42 cm of length, 3 cm of width and 12 cm of height. Angle between any two arms is 120 degrees and the arms were made of black polyvinyl resin.
The mice prepared in the above 1) were separated into 5 groups (10 mice per each group) comprised of drug administration groups 1 and 2, and controls 1 to 3.
The swertisin prepared in Example 3 (8 mg) was dissolved in 4 mL of 10% Tween 80 (Polyoxyethylene sorbitan monooleate: Sigma, U.S.A.), and administered to the drug administration groups 1 and 2 in an amounts of 5 mg/Kg and 10 mg/Kg respectively. Meanwhile, 5 mg/Kg of donepezil was administered to the control 1, and 0.15 mL of 10% Tween 80 was administered to the controls 2 and 3 respectively.
About 30 minutes later, 1 mg/Kg of scopolamine, which was dissolved in distilled water, was intraperitoneally administered to the drug administration groups 1 and 2, and controls 1 and 2 (Ebert, U. et al., Eur. J. Clin. Invest., 28, pp. 944-949, 1998), and 0.9% of saline solution was intraperitoneally administered to the control 3.
After 30 minutes, mice of the drug administration groups 1 and 2, and the controls 1-3 were carefully located on each branches of the Y-maze, which was divided as A, B and C respectively, and let the mice move freely for 8 minutes, and then recorded branches where mice have entered. The entrance was recorded when the entire body (i.e. including the tail) has completely entered. It was also recorded when the mice entered again into the branch that the mice have entered before.
One point was scored when the mouse sequentially entered into 3 different branches (actual alternation). Alternation behavior is defined as sequentially entering into every 3 branch, and it was converted into % via Equation 1 below (Sarter, M. et al., Psychopharmacology., 94, pp. 491-495, […]).

[2] = tested on: anxiety symptoms in a normal status; assay: Marble burying test; assay type: in vivo, ICR mice; conditions: swertisin 10 mg/kg
Procedure: as §1
As a method of measuring alleviation of anxiety symptoms in a normal status, the marble burying test was conducted based on the nature of mice that they dig when feel anxiety. Inside of a cage in size of 40 cm s 27 cm s 18 cm was covered with straw to the height of 4 cm, and 25 marbles having same pattern were arranged at intervals of 3 cm. Two groups (10 mice per each group) were prepared as the drug administration group 1, wherein swertisin, which is one of the flavone-6-C-β-D-glucose derivatives prepared in Example 3, was administered, and the control 1. […]
After 60 minutes of administration, mice of the drug administration group 1 and the control 1 were carefully located in the cage having the marbles and the mice were allowed to move freely for 30 minutes. After 30 minutes, the number of buried marbles under straw was counted. […] The more the number of buried marbles, it was assessed that the laboratory animal feels anxiety severer (Broekkamp, C L. et al., Eur J Pharmacol., 126, pp 223-229, 1986).

## COc1cc2oc(-c3ccc(O)cc3)cc(=O)c2c(O)c1[C@@H]1O[C@H](CO)[C@@H](O)[C@H](O)[C@H]1O [swertisin]
[1]; swertisin 5 mg/kg
  Alternation Behavior (%): 56.22 ± 12.29%
  Total Entry: 27.10 ± 7.795
[1]; swertisin 10 mg/kg
  Alternation Behavior (%): 59.36 ± 5.653%
  Total Entry: 28.88 ± 4.155
[2]
  number of the buried marbles compared to that of the control 1, in words: decreased
[2]; 60 minutes after administration, 30 minutes in cage, 25 marbles
  Number of Buried Marbles: 21.78 ± 1.856

Source: patent US10251902B2, “Pharmaceutical composition for treating or preventing neuropsychiatric disease, containing flavone-6-C-glucose derivatives as active ingredients” (priority 2013, dated 2019)
